Test results from patent US20220389007A1, “INHIBITORS OF HUMAN IMMUNODEFICIENCY VIRUS REPLICATION” (VIIV HEALTHCARE UK (No. 5) LIMITED, priority 2019, published 2022).

Key:
recombinant NL4-3 virus = assay: HIV cell culture assay (antiviral activity, luciferase readout); assay type: cell-based; details: MT-2 cells infected for 4-5 days with recombinant NL4-3 virus carrying Renilla luciferase, read-out: EC50
In short: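 MT-2 cells infected for 4-5 days with NL4-3 reference virus carrying Renilla luciferase in place of part of nef, in presence of serial compound dilutions. Luciferase read with live-cell substrate; EC50 from median effect equation fit.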

uninfected MT2 cells = assay: Compound cytotoxicity, XTT-based colorimetric assay; assay type: cell-based; details: day 4, XTT assay
In short: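 Run under the antiviral-assay protocol but without virus. Viability was read on day 4 and CC50 values were derived from the readout.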

| SMILES | EC50 (recombinant NL4-3 virus) [nM] | CC50 (uninfected MT2 cells) [nM] |
| --- | --- | --- |
| Cn1nc(NS(C)(=O)=O)c2c(Cl)ccc(-n3c([C@H](Cc4cc(F)cc(F)c4)NC(=O)Cn4nc(C(F)F)c5c4C(F)(F)[C@@H]4C[C@H]54)nc4nc(-c5cnc(C(C)(C)O)s5)ccc4c3=O)c21 [Example 92, N-((S)-1-((3P)-3-(4-chloro-1-methyl-3-(methylsulfonamido)-1H-indazol-7-yl)-7-(2-(2-hydroxypropan-2-yl)thiazol-5-yl)-4-oxo-3,4-dihydropyrido[2,3-d]pyrimidin-2-yl)-2-(3,5-difluorophenyl)ethyl)-2-((3bS,4aR)-3-(difluoromethyl)-5,5-difluoro-3b,4,4a,5-tetrahydro-1H-cyclopropa[3,4]cyclopenta[1,2-c]pyrazol-1-yl)acetamide] | 0.065 | > 100 |
| Cn1nc(NS(C)(=O)=O)c2c(Cl)ccc(-n3c([C@H](Cc4cc(F)cc(F)c4)NC(=O)Cn4nc(C(F)F)c5c4C(F)(F)[C@@H]4C[C@H]54)nc4nc(-c5csc(S(C)(=O)=O)n5)ccc4c3=O)c21 [Example 93, N-((S)-1-((3P)-3-(4-chloro-1-methyl-3-(methylsulfonamido)-1H-indazol-7-yl)-7-(2-(methylsulfonyl)thiazol-4-yl)-4-oxo-3,4-dihydropyrido[2,3-d]pyrimidin-2-yl)-2-(3,5-difluorophenyl)ethyl)-2-((3bS,4aR)-3-(difluoromethyl)-5,5-difluoro-3b,4,4a,5-tetrahydro-1H-cyclopropa[3,4]cyclopenta[1,2-c]pyrazol-1-yl)acetamide] | 0.056 | > 100 |
